The target in experiment [1] is ERβ (Homo sapiens, UniProt Q92731). The experiment can be described thus: ER affinity assay (ERβ), [3H]-E2 displacement. To be noted: Relative Binding Affinity, E2 = 100%; recombinant human protein. The method, then: (§1) The binding affinity of selected compounds to the ERα and ERβ was determined according to Zimmermann et al. (Zimmermann, J. et al., 3. Steroid Biochem. Mol. Biol., 94:57-66 (2005)) using recombinant human proteins. Briefly, 0.25 μM of ERα or ERβ, respectively, were incubated with [^3H]-E2 (10 nM) and test compound for 1 h at room temperature. The potential inhibitors were dissolved in DMSO (5% final concentration). Evaluation of non-specific-binding was performed with diethylstilbestrol (10 μM). After incubation, ligand-receptor complexes were selectively bound to hydroxyapatite (5 g/60 ml TE-buffer). The formed complex was separated, washed and resuspended in ethanol. For radiodetection, scintillator cocktail (Quickszint 212, Zinsser Analytic, Frankfurt) was added and the samples were measured in a liquid scintillation counter (Rack Beta Primo 1209, Wallac, Turku). […] The compound concentration to displace 50% of the receptor bound [^3H]-E2 were determined. Unlabelled E2 was used as a reference. For determination of the relative binding affinity (RBA) the ratio was calculated according to the following equation: […]
(§2) After the assay was established and validated a modification was made to increase throughput. […] Results were reported as RBA ranges.

In experiment [2] the target is T1, ERα (Homo sapiens, UniProt P03372).
T1 sequence (P03372 1-595): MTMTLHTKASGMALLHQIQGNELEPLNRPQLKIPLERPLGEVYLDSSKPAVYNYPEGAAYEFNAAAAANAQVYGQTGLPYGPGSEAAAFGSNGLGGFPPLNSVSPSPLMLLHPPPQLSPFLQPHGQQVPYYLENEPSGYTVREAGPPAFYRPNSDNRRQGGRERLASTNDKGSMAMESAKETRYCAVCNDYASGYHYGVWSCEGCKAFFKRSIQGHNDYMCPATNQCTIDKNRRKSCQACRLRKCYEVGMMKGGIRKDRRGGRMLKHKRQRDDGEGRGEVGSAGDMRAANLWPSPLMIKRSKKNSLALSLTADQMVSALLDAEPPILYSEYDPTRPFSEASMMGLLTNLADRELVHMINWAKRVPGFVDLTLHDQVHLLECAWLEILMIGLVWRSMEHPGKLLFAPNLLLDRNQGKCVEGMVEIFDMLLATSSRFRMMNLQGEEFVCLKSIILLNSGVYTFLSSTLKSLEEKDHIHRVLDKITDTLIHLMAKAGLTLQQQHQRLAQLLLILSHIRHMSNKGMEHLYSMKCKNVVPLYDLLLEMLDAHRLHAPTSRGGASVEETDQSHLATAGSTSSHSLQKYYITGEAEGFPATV
The experiment can be described thus: ER affinity assay (ERα), [3H]-E2 displacement. To be noted: Relative Binding Affinity, E2 = 100%; recombinant human protein. The method, then:
as §1, §2

The target of experiment [3] is T2, 17β-HSD2 (Homo sapiens, UniProt P37059).
T2 sequence (P37059 1-387): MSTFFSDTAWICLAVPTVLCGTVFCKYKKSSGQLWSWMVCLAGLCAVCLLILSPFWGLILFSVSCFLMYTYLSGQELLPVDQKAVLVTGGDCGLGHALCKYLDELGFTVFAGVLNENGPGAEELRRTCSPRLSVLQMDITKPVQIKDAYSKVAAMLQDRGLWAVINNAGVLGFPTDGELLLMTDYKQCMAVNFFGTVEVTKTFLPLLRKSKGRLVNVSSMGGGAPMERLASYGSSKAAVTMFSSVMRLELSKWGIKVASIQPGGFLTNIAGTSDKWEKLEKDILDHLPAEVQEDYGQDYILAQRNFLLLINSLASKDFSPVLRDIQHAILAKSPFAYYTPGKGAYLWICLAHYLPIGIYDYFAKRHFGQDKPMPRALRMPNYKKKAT
The experiment can be described thus: Inhibition of 17β-HSD2 in cell-free assay. The experiment is classed as biochemical. Also on record: 17β-HSD2 was obtained directly from the microsomal fraction; from tissue; host or cells: human placenta, microsomal fraction. To be noted: human placenta, microsomal fraction, substrate E2 500 nM, cofactor NAD+ 1500 μM. The method, then:
(§3) Fresh human placenta was homogenized. Cytosolic and microsomal fractions were separated by centrifugation at 1000 g, 10000 g and 150000 g. 17β-HSD2 was obtained directly from the microsomal fraction. For the partial purification of 17β-HSD1, the cytosolic fraction was precipitated with ammonium sulfate. Aliquots containing 17β-HSD1 or 17β-HSD2 were stored frozen.
Inhibitor stock solutions were prepared in DMSO. Final concentration of DMSO was adjusted to 1% in all samples. The enzymatic reaction was started by addition of a mixture of unlabelled- and [^3H]-E2 (final concentration: 500 nM, 0.11 μCi). After 20 min at 37° C., the incubation was stopped with HgCl2 and the mixture was extracted with ether. After evaporation, the steroids were dissolved in acetonitrile. E1 and E2 were separated using acetonitrile/water (45:55) as mobile phase in a C18 RP chromatography column (Nucleodur C18, 3 μm, Macherey-Nagel, Duren) connected to a HPLC-system (Agilent 1100 Series, Agilent Technologies, Waldbronn). Detection and quantification of the steroids were performed using a radioflow detector (Berthold Technologies, Bad Wildbad). The conversion rate was calculated according to the following equation: […]

The target of experiment [4] is T3, 17β-HSD1 (Homo sapiens, UniProt P14061).
T3 construct: For the partial purification of 17β-HSD1, the cytosolic fraction was precipitated with ammonium sulfate; from tissue; host or cells: human placenta, cytosolic fraction
T3 sequence (P14061 1-328): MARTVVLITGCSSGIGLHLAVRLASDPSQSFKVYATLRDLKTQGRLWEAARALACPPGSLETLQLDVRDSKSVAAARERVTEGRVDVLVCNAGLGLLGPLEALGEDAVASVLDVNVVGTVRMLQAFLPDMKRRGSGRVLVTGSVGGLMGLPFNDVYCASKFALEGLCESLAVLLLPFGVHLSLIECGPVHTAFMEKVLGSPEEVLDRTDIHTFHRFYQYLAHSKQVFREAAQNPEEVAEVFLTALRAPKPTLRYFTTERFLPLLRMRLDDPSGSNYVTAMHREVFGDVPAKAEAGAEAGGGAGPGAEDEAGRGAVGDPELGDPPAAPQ
Briefly: Inhibition of 17β-HSD1 in cell-free assay. The experiment is classed as biochemical. To be noted: human placenta, cytosolic fraction, substrate E1 500 nM, cofactor NADH 500 μM. The method, then:
as §3
The 17β-HSD1 inhibition assay was performed similarly to the 17β-HSD2 test. The cytosolic fraction was incubated with NADH [500 μM], test compound and a mixture of unlabelled- and [^3H]-E1 (final concentration: 500 nM, 0.15 μCi) for 10 min at 37° C. Further treatment of the samples and HPLC separation was carried out as mentioned above for 17β-HSD2.

ERβ, sequence (Q92731 whole entry): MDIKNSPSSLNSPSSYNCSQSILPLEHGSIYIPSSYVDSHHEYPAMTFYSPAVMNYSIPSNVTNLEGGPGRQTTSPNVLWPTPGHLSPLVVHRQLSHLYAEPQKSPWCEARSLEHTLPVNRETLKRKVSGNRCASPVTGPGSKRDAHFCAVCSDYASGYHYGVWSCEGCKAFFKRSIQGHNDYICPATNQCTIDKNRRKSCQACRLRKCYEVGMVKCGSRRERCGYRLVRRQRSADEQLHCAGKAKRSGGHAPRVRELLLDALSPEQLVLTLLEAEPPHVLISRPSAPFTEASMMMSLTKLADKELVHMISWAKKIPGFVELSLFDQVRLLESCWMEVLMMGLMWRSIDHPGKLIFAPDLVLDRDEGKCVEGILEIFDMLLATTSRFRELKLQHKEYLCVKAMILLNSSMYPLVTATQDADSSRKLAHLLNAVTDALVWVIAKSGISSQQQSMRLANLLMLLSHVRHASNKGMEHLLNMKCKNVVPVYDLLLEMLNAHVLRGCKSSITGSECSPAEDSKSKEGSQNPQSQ

`COc1cccc(CN(C)C(=O)c2ccc(-c3cccc(OC)c3)cc2)c1` [compound 1, 3′-Methoxy-N-(3-methoxybenzyl)-N-methylbiphenyl-4-carboxamide]: the “ERβ RBA (%)” value in experiment [1] is listed as less than 0.1%. For the same compound, the “ERα RBA (%)” value in experiment [2] is recorded as less than 0.1%.

On to `Cc1cccc(-c2ccc(C(=O)N(C)Cc3cccc(O)c3)cc2)c1` [compound 4, N-(3-hydroxybenzyl)-N,3′-dimethylbiphenyl-4-carboxamide], for which the “ERβ RBA (%)” value in experiment [1] is less than 0.1%. Also, the “ERα RBA (%)” value in experiment [2] is given as less than 0.1%.

The inhibition is the relative decrease from the control value, in per cent. Read a high inhibition as strong suppression. For the compound `COc1ccc(-c2cccc(C(=O)N(C)Cc3cccc(OC)c3)c2)cc1` [compound 5, 4′-Methoxy-N-(3-methoxybenzyl)-N-methylbiphenyl-3-carboxamide], the inhibition at 1 µM in experiment [3] (inhibitor concentration 1 μM) worked out at 11%. The “% inhibition 17β-HSD1” value in experiment [4] (inhibitor concentration 1 μM) is reported as “n.i.^e”.

On to `CN(Cc1cccc(O)c1)C(=O)c1cccc(-c2ccc(O)cc2)c1` [compound 6, 4′-Hydroxy-N-(3-hydroxybenzyl)-N-methylbiphenyl-3-carboxamide], for which, in experiment [1], the “ERβ RBA (%)” value is less than 0.1%. The “ERα RBA (%)” value in experiment [2] is less than 0.1%.

By IC50 is commonly meant the point on the concentration scale where inhibition reaches its midpoint. In the case of `CN(Cc1cccc(O)c1)C(=O)c1cccc(-c2cccc(O)c2)c1` [compound 8, 3′-Hydroxy-N-(3-hydroxybenzyl)-N-methylbiphenyl-3-carboxamide], the IC50 in experiment [3] was determined as 0.481 µM; in experiment [4], 3.8 µM.

`COc1ccc(-c2ccc(C(=O)N(C)Cc3cccc(OC)c3)s2)cc1` [compound 25, N-(3-Methoxybenzyl)-5-(4-methoxyphenyl)-N-methylthiophene-2-carboxamide]: the “ERβ RBA (%)” value in experiment [1] is on record as less than 0.1%. Besides, the “ERα RBA (%)” value in experiment [2] is less than 0.1%.

Take `CN(Cc1cccc(O)c1)C(=O)c1ccc(-c2ccccc2)s1` [compound 30, N-(3-Hydroxybenzyl)-N-methyl-5-phenylthiophene-2-carboxamide]: the “ERβ RBA (%)” value in experiment [1] is on record as less than 0.1%. For the same compound, the “ERα RBA (%)” value in experiment [2] is listed as less than 0.1%.

Take `COc1cccc(-c2ccc(C(=O)N(C)Cc3ccccc3)s2)c1` [compound 33, N-Benzyl-5-(3-methoxyphenyl)-N-methylthiophene-2-carboxamide]: in experiment [1], the “ERβ RBA (%)” value is on record as less than 0.1%. Also, in experiment [2], the “ERα RBA (%)” value is less than 0.1%.

With `COc1ccc(-c2ccc(C(=O)N(C)Cc3ccccc3)s2)cc1` [compound 35, N-Benzyl-5-(4-methoxyphenyl)-N-methylthiophene-2-carboxamide], in experiment [1], the “ERβ RBA (%)” value is on record as less than 0.1%. The “ERα RBA (%)” value in experiment [2] was less than 0.1%.

Take `CN(Cc1cccc(O)c1)C(=O)c1ccc(-c2ccc(F)cc2)s1` [compound 42, 5-(4-Fluorophenyl)-N-(3-hydroxybenzyl)-N-methylthiophene-2-carboxamide]: the “ERβ RBA (%)” value in experiment [1] is reported as less than 0.1%. Besides, in experiment [2], the “ERα RBA (%)” value is reported as less than 0.1%.

Turning to `COc1cccc(-c2ccc(C(=O)N(C)Cc3cccc(O)c3)s2)c1` [compound 45, N-(3-Hydroxybenzyl)-5-(3-methoxyphenyl)-N-methylthiophene-2-carboxamide], the “ERβ RBA (%)” value in experiment [1] is less than 0.1%. For the same compound, the “ERα RBA (%)” value in experiment [2] was less than 0.1%. Besides, it took 23.3 µM to reach half-maximal inhibition in experiment [4] (IC50).

With `COc1cccc(-c2ccc(C(=O)N(C)c3cccc(OC)c3)s2)c1` [compound 47, N,5-bis(3-Methoxyphenyl)-N-methylthiophene-2-carboxamide], in experiment [1], the “ERβ RBA (%)” value is less than 0.1%. For the same compound, in experiment [2], the “ERα RBA (%)” value is listed as less than 0.1%.

In the case of `COc1ccc(-c2ccc(C(=O)N(C)c3cccc(OC)c3)s2)cc1` [compound 55, N-(3-Methoxyphenyl)-5-(4-methoxyphenyl)-N-methylthiophene-2-carboxamide], the “ERβ RBA (%)” value in experiment [1] is given as less than 0.1%. The “ERα RBA (%)” value in experiment [2] was less than 0.1%.

As to `COc1cccc(N(C)C(=O)c2ccc(-c3cccc(SC)c3)s2)c1` [compound 63, N-(3-methoxyphenyl)-N-methyl-5-(3-(methylthio)phenyl)thiophene-2-carboxamide], in experiment [1], the “ERβ RBA (%)” value was less than 0.1%. Moreover, the “ERα RBA (%)” value in experiment [2] is recorded as less than 0.1%.

With `COc1cccc(N(C)C(=O)c2ccc(-c3cccc(C)c3)s2)c1` [compound 64, N-(3-methoxyphenyl)-N-methyl-5-m-tolylthiophene-2-carboxamide], in experiment [1], the “ERβ RBA (%)” value was less than 0.1%. In addition, the “ERα RBA (%)” value in experiment [2] is less than 0.1%.

Regarding `COc1cccc(N(C)C(=O)c2ccc(-c3c(F)ccc(OC)c3F)s2)c1` [compound 65, 5-(2,6-Difluoro-3-methoxyphenyl)-N-(3-methoxyphenyl)-N-methylthiophene-2-carboxamide], in experiment [1], the “ERβ RBA (%)” value is given as less than 0.1%. Further, in experiment [2], the “ERα RBA (%)” value is listed as less than 0.1%.

On to `COc1cccc(N(C)C(=O)c2ccc(-c3cccc(C)c3F)s2)c1` [compound 66, 5-(2-Fluoro-3-methylphenyl)-N-(3-methoxyphenyl)-N-methylthiophene-2-carboxamide], for which the “ERβ RBA (%)” value in experiment [1] is reported as less than 0.1%. Further, the “ERα RBA (%)” value in experiment [2] is less than 0.1%.

Take `COc1cccc(-c2ccc(C(=O)N(C)c3ccccc3)s2)c1` [compound 67, 5-(3-Methoxyphenyl)-N-methyl-N-phenylthiophene-2-carboxamide]: the “ERβ RBA (%)” value in experiment [1] is given as less than 0.1%. Also, the “ERα RBA (%)” value in experiment [2] is recorded as less than 0.1%.

As to `COc1cccc(-c2ccc(C(=O)N(C)c3cccc(C)c3)s2)c1F` [compound 72, 5-(2-Fluoro-3-methoxyphenyl)-N-methyl-N-(m-tolylthiophene)-2-carboxamide], the “ERβ RBA (%)” value in experiment [1] is given as less than 0.1%. Moreover, the “ERα RBA (%)” value in experiment [2] is on record as less than 0.1%.

With `Cc1cccc(-c2ccc(C(=O)N(C)c3ccccc3F)s2)c1` [compound 74, N-(2-fluorophenyl)-N-methyl-5-m-tolylthiophene-2-carboxamide], the “ERβ RBA (%)” value in experiment [1] is less than 0.1%. The “ERα RBA (%)” value in experiment [2] was less than 0.1%.
